{"source": "patent US6472348B1", "about": "“Pyridone derivatives and herbicides” (Kumiai Chemical Industry Co., Ltd., priority 1996, dated 2002);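 on Herbicidal effects Ci: grade of growth control; 5 = at least 90%; 4 = 70 to 90%; 3 = 50 to 70%; 2 = 30 to 50%; 1 = 10 to 30%; 0 = under 10%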;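 on Herbicidal effects Di: grade of growth control; 5 = at least 90%; 4 = 70 to 90%; 3 = 50 to 70%; 2 = 30 to 50%; 1 = 10 to 30%; 0 = under 10%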;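 on Herbicidal effects Ec: grade of growth control; 5 = at least 90%; 4 = 70 to 90%; 3 = 50 to 70%; 2 = 30 to 50%; 1 = 10 to 30%; 0 = under 10%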", "key": {"barnyardgrass (Ec) [1]": {"system": "barnyardgrass (Ec)", "test": "Test Example 1: herbicidal effects by paddy field soil treatment;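 further: grade of growth control; 5 = at least 90%; 4 = 70 to 90%; 3 = 50 to 70%; 2 = 30 to 50%; 1 = 10 to 30%; 0 = under 10%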", "type": "in vivo", "conditions": "100 g of the active ingredient per 10 ares, 21st day after the application, index 0-5 of Table 47", "how_it_was_run": "(§1)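 Herbicidal effect was scored against a graded standard 21 days after treatment. Seeds were sown in puddled, leveled paddy soil flooded to 3 cm depth, and the active ingredient was applied at 100 g per 10 ares before greenhouse culture.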"}, "bulrush (Sc)": {"system": "bulrush (Sc)", "test": "Test Example 1: herbicidal effects by paddy field soil treatment", "type": "in vivo", "conditions": "100 g of the active ingredient per 10 ares, 21st day after the application, index 0-5 of Table 47", "how_it_was_run": "as §1"}, "monochoria (Mo)": {"system": "monochoria (Mo)", "test": "Test Example 1: herbicidal effects by paddy field soil treatment", "type": "in vivo", "conditions": "100 g of the active ingredient per 10 ares, 21st day after the application, index 0-5 of Table 47", "how_it_was_run": "as §1"}, "Digitaria ciliaris (Di)": {"system": "Digitaria ciliaris (Di)", "test": "Test Example 2: herbicidal effects by upland field soil treatment", "type": "in vivo", "conditions": "100 g of the active ingredient per 10 ares, 21st day after the application, index 0-5 of Table 47", "excerpt": "(§2) (Test on Herbicidal Effects by Upland Field Soil Treatment)"}, "barnyardgrass (Ec) [2]": {"system": "barnyardgrass (Ec)", "test": "Test Example 2: herbicidal effects by upland field soil treatment", "type": "in vivo", "conditions": "100 g of the active ingredient per 10 ares, 21st day after the application, index 0-5 of Table 47", "excerpt": "as §2"}, "[3]": {"system": "common lambsquarters (Ch)", "test": "Test Example 2: herbicidal effects by upland field soil treatment", "type": "in vivo", "conditions": "100 g of the active ingredient per 10 ares, 21st day after the application, index 0-5 of Table 47", "excerpt": "as §2"}, "pale smartweed (Po) [4]": {"system": "pale smartweed (Po)", "test": "Test Example 2: herbicidal effects by upland field soil treatment", "type": "in vivo", "conditions": "100 g of the active ingredient per 10 ares, 21st day after the application, index 0-5 of Table 47", "excerpt": "as §2"}, "rice flatsedge (Ci) [5]": {"system": "rice flatsedge (Ci)", "test": "Test Example 2: herbicidal effects by upland field soil treatment", "type": "in vivo", "conditions": "100 g of the active ingredient per 10 ares, 21st day after the application, index 0-5 of Table 47", "excerpt": "as §2"}, "slender amaranth (Am) [6]": {"system": "slender amaranth (Am)", "test": "Test Example 2: herbicidal effects by upland field soil treatment", "type": "in vivo", "conditions": "100 g of the active ingredient per 10 ares, 21st day after the application, index 0-5 of Table 47", "excerpt": "as §2"}, "Diaitaria ciliaris (Di)": {"system": "Diaitaria ciliaris (Di)", "test": "Test Example 3: herbicidal effects by upland field foliage treatment", "type": "in vivo", "design": "scale not given here", "conditions": "100 g of the active ingredient per 10 ares, evaluated on the 14th day after treatment", "how_it_was_run": "(§3)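 Using plants cultured for 2 weeks in a greenhouse from seed sown in soil-covered sand (pots 120 cm^2), the compounds were applied to foliage, and weed control was graded by standard criteria 14 days thereafter.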"}, "barnyardgrass (Ec) [7]": {"system": "barnyardgrass (Ec)", "test": "Test Example 3: herbicidal effects by upland field foliage treatment", "type": "in vivo", "design": "scale not given here", "conditions": "100 g of the active ingredient per 10 ares, evaluated on the 14th day after treatment", "how_it_was_run": "as §3"}, "[8]": {"system": "common lambsquarters (Ch)", "test": "Test Example 3: herbicidal effects by upland field foliage treatment", "type": "in vivo", "design": "scale not given here", "conditions": "100 g of the active ingredient per 10 ares, evaluated on the 14th day after treatment", "how_it_was_run": "as §3"}, "pale smartweed (Po) [9]": {"system": "pale smartweed (Po)", "test": "Test Example 3: herbicidal effects by upland field foliage treatment", "type": "in vivo", "design": "scale not given here", "conditions": "100 g of the active ingredient per 10 ares, evaluated on the 14th day after treatment", "how_it_was_run": "as §3"}, "rice flatsedge (Ci) [10]": {"system": "rice flatsedge (Ci)", "test": "Test Example 3: herbicidal effects by upland field foliage treatment", "type": "in vivo", "design": "scale not given here", "conditions": "100 g of the active ingredient per 10 ares, evaluated on the 14th day after treatment", "how_it_was_run": "as §3"}, "slender amaranth (Am) [11]": {"system": "slender amaranth (Am)", "test": "Test Example 3: herbicidal effects by upland field foliage treatment", "type": "in vivo", "design": "scale not given here", "conditions": "100 g of the active ingredient per 10 ares, evaluated on the 14th day after treatment", "how_it_was_run": "as §3"}, "cotton (Go)": {"system": "cotton (Go)", "test": "Test Example 4: crop plant selectivity by upland field soil treatment (cotton), phytotoxicity", "type": "in vivo", "design": "scale not given here", "conditions": "dose 6.3 g ai/10 a, evaluated 21st day after application", "how_it_was_run": "(§4)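 Upland soil treatment: crop and weed seeds in sand pots under a soil cover, compound applied to soil, greenhouse-grown, rated visually 21 d later.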"}, "China jute (Ab) [12]": {"system": "China jute (Ab)", "test": "Test Example 4: crop plant selectivity by upland field soil treatment (cotton), herbicidal effects", "type": "in vivo", "design": "scale not given here", "conditions": "dose 6.3 g ai/10 a, evaluated 21st day after application", "how_it_was_run": "as §4"}, "[13]": {"system": "common lambsquarters (Ch)", "test": "Test Example 4: crop plant selectivity by upland field soil treatment (cotton), herbicidal effects", "type": "in vivo", "design": "scale not given here", "conditions": "dose 6.3 g ai/10 a, evaluated 21st day after application", "how_it_was_run": "as §4"}, "green foxtail (Se) [14]": {"system": "green foxtail (Se)", "test": "Test Example 4: crop plant selectivity by upland field soil treatment (cotton), herbicidal effects", "type": "in vivo", "design": "scale not given here", "conditions": "dose 6.3 g ai/10 a, evaluated 21st day after application", "how_it_was_run": "as §4"}, "pale smartweed (Po) [15]": {"system": "pale smartweed (Po)", "test": "Test Example 4: crop plant selectivity by upland field soil treatment (cotton), herbicidal effects", "type": "in vivo", "design": "scale not given here", "conditions": "dose 6.3 g ai/10 a, evaluated 21st day after application", "how_it_was_run": "as §4"}, "slender amaranth (Am) [16]": {"system": "slender amaranth (Am)", "test": "Test Example 4: crop plant selectivity by upland field soil treatment (cotton), herbicidal effects", "type": "in vivo", "design": "scale not given here", "conditions": "dose 6.3 g ai/10 a, evaluated 21st day after application", "how_it_was_run": "as §4"}, "wheat (Tr)": {"system": "wheat (Tr)", "test": "Test Example 5: crop plant selectivity by upland field soil treatment (wheat), phytotoxicity", "type": "in vivo", "design": "scale not given here", "conditions": "dose 6.3 g ai/10a, 21st day after application", "how_it_was_run": "(§5)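 Upland soil-treatment selectivity test: crop and weed seeds are sown together in sand-filled pots, soil-covered, then treated and grown under glass until rating at 21 days.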"}, "China jute (Ab) [17]": {"system": "China jute (Ab)", "test": "Test Example 5: crop plant selectivity by upland field soil treatment (wheat), herbicidal effects", "type": "in vivo", "design": "scale not given here", "conditions": "dose 6.3 g ai/10a, 21st day after application", "how_it_was_run": "as §5"}, "[18]": {"system": "common lambsquarters (Ch)", "test": "Test Example 5: crop plant selectivity by upland field soil treatment (wheat), herbicidal effects", "type": "in vivo", "design": "scale not given here", "conditions": "dose 6.3 g ai/10a, 21st day after application", "how_it_was_run": "as §5"}, "green foxtail (Se) [19]": {"system": "green foxtail (Se)", "test": "Test Example 5: crop plant selectivity by upland field soil treatment (wheat), herbicidal effects", "type": "in vivo", "design": "scale not given here", "conditions": "dose 6.3 g ai/10a, 21st day after application", "how_it_was_run": "as §5"}, "pale smartweed (Po) [20]": {"system": "pale smartweed (Po)", "test": "Test Example 5: crop plant selectivity by upland field soil treatment (wheat), herbicidal effects", "type": "in vivo", "design": "scale not given here", "conditions": "dose 6.3 g ai/10a, 21st day after application", "how_it_was_run": "as §5"}, "slender amaranth (Am) [21]": {"system": "slender amaranth (Am)", "test": "Test Example 5: crop plant selectivity by upland field soil treatment (wheat), herbicidal effects", "type": "in vivo", "design": "scale not given here", "conditions": "dose 6.3 g ai/10a, 21st day after application", "how_it_was_run": "as §5"}}, "data": [{"smiles": "CNS(=O)(=O)c1cc(-c2ccc(C(F)(F)F)n(C)c2=O)c(F)cc1Cl", "note": "[Compound No. 1-71, 3-(4-chloro-2-fluoro-5-methylsulfamoylphenyl)-1-methyl-6-trifluoromethyl-2(1H)-pyridone]", "values": [{"measurement": "Herbicidal effects Ec", "setting": "barnyardgrass (Ec) [1]", "value": 5}, {"measurement": "Herbicidal effects Sc", "setting": "bulrush (Sc)", "value": 5}, {"measurement": "Herbicidal effects Mo", "setting": "monochoria (Mo)", "value": 5}, {"measurement": "Herbicidal effects Di", "setting": "Digitaria ciliaris (Di)", "value": 5}, {"measurement": "Herbicidal effects Ec", "setting": "barnyardgrass (Ec) [2]", "value": 5}, {"measurement": "Herbicidal effects Ch", "setting": "[3]", "value": 5}, {"measurement": "Herbicidal effects Po", "setting": "pale smartweed (Po) [4]", "value": 5}, {"measurement": "Herbicidal effects Ci", "setting": "rice flatsedge (Ci) [5]", "value": 5}, {"measurement": "Herbicidal effects Am", "setting": "slender amaranth (Am) [6]", "value": 5}, {"measurement": "Herbicidal effects Di", "setting": "Diaitaria ciliaris (Di)", "value": 5}, {"measurement": "Herbicidal effects Ec", "setting": "barnyardgrass (Ec) [7]", "value": 5}, {"measurement": "Herbicidal effects Ch", "setting": "[8]", "value": 5}, {"measurement": "Herbicidal effects Po", "setting": "pale smartweed (Po) [9]", "value": 5}, {"measurement": "Herbicidal effects Ci", "setting": "rice flatsedge (Ci) [10]", "value": 5}, {"measurement": "Herbicidal effects Am", "setting": "slender amaranth (Am) [11]", "value": 5}, {"measurement": "Phytotoxicity Go", "setting": "cotton (Go)", "value": 1}, {"measurement": "Herbicidal effects Ab", "setting": "China jute (Ab) [12]", "value": 5}, {"measurement": "Herbicidal effects Ch", "setting": "[13]", "value": 5}, {"measurement": "Herbicidal effects Se", "setting": "green foxtail (Se) [14]", "value": 5}, {"measurement": "Herbicidal effects Po", "setting": "pale smartweed (Po) [15]", "value": 5}, {"measurement": "Herbicidal effects Am", "setting": "slender amaranth (Am) [16]", "value": 5}, {"measurement": "Phytotoxicity Tr", "setting": "wheat (Tr)", "value": 2}, {"measurement": "Herbicidal effects Ab", "setting": "China jute (Ab) [17]", "value": 5}, {"measurement": "Herbicidal effects Ch", "setting": "[18]", "value": 5}, {"measurement": "Herbicidal effects Se", "setting": "green foxtail (Se) [19]", "value": 5}, {"measurement": "Herbicidal effects Po", "setting": "pale smartweed (Po) [20]", "value": 5}, {"measurement": "Herbicidal effects Am", "setting": "slender amaranth (Am) [21]", "value": 5}, {"measurement": "melting point", "value": "150 to 151", "unit": "°C"}]}]}
